The text below walks through data of PMC7588429, “Structure/activity virtual screening and in vitro testing of small molecule inhibitors of 8-hydroxy-5-deazaflavin:NADPH oxidoreductase from gut methanogenic bacteria” (Scientific Reports, 2020).

Molecules are shown by their SMILES. Read-outs that look alike come from different tables or passages of the source.

Data set [1] relates to FNO. Kind of data set: pH dependence of mangiferin-FNO binding (biosensor, linkage analysis). As to conditions: 7.35 ± 0.33 in free enzyme.
Description: In order to evaluate the effects of pH on the enzyme-ligand interaction, the binding of mangiferin (6.25–62.5 µM) to FNO was studied at different pH values in the range 6.0–8.0.
To evaluate the effects of pH on the enzyme-ligand interaction, the binding studies between mangiferin and FNO were replicated in a pH range between 6.4 and 8. The observed dependence of experimental KD from pH was analyzed according to a classic linkage relationship, protons being considered as heterotropic ligands for FNO[40]. This model involves a macromolecule (FNO) having a binding site for a ligand (mangiferin), and heterotropic binding sites able to accommodate a second ligand (H^+). These binding sites for protons present on the macromolecule can be grouped into two main sets: one with n binding sites with an ionization constant λ1, and one with m binding sites, each having an ionization constant equal to λ2. Therefore, the macromolecule can be described in three main ionization conditions: at low and at high pH values the fully protonated and the completely deprotonated forms prevail, respectively, whereas the intermediate form prevails at pH values equal to:1 pH=-logλ1-logλ2/2
Upon binding, the proton binding sites have their ionization constants shifted to λ3 and λ4, respectively. […]
Data set [2] concerns the target T1, FNO from M. smithii (Methanobrevibacter smithii, UniProt A5UJ76). Kind of data set: Molecular docking (AutoDock Vina) onto the homology model of FNO. As to conditions: predicted. The text has this:
The 8,012 compounds selected from the Zbc database subset on molecular weight and clogP criteria were individually docked against the homology model of FNO from M. smithii using a Perl/Python pipeline on AutoDock Vina. The residues constituting the catalytic site of FNO were retrieved from the available literature[19] and explicitly defined as the grid centre for all ligands. The quantitative results of docking in terms of ΔGpred of each highest-score pose were collected into a single array (ΔGpred values ranged between − 4.9 and − 10.5 kcal/mol), which was then merged with the other structural descriptors (as PSA, H-donors and acceptors, cLogP, MW, Drug-likeness, Total surface area) available for each compound as summarized in Supplementary Information.
In the absence of a crystallographic structure for FNO from M. smithii, its three-dimensional structure was obtained by homology modelling, according to a previously reported procedure. […]
8,012 molecules selected from the Zbc subset of ZINC database[36] on molecular weight (350–450 amu) and hydrophobicity (cLogP < 3.85) criteria were iteratively docked to the homology model of FNO from M. smithii using AutoDock Vina[37]. […] Structural properties of each molecule and calculated binding affinities to FNO were globally analysed with DataWarrior[38].

Data set [3] deals with T1, FNO from M. smithii. Nature of the data set: Fluorometric FNO activity inhibition assay (F420 reduction with NADPH). The format is biochemical. On the procedure: According to the fluorometric assay of FNO activity, we observed an evident decrease in F420 reduction rates upon 15 min preincubation of FNO with increasing levels of the ten representative compounds of interest (the superimposition of representative residual activity plots obtained with β-D-glucose pentaacetate, mangiferin and baicalin are shown in Fig. 11; the full panel is provided in Supplemental Information).
FNO catalyses the reduction of NADP^+ with F420H2 via hydride transfer, and the reverse reaction, i.e. the reduction of F420 with NADPH. Here, the spectrofluorometric assay of FNO activity was based on monitoring the decrease in F420 emission at 470 nm upon excitation at 420 nm. Briefly, FNO (4 nM) was incubated with 0.5 mM F420 (purified from T. roseum as described in the Supplementary Information) and 0.5 mM NADPH (this concentration was selected on the basis of Km values in other methanogenic organisms[42]) at 37 °C in the presence or in the absence of increasing concentrations of the compounds of interest in 50 mM sodium citrate, pH 6.0. […] The residual activity ( a ) was expressed as the ratio of the initial velocities of the product formation in the presence ( V0,i ) and in the absence ( V0 ) of a given inhibitor concentration [Ii]. Raw data were processed as described elsewhere.

The target of data set [4] is T1, FNO from M. smithii. Nature of the data set: SPR optical biosensor binding to immobilized FNO. Conditions: for kon / koff / kass / kdiss: PBS pH 7.4; for kon: read-out: kass; for koff: read-out: kdiss. The protocol:
FNO was covalently immobilized on a carboxylate surface according to the protocol described in the Materials and Methods section. The change in the signal related to immobilization of the enzyme (ΔR ≅ 1,000 arcsec) corresponded to the achievement of a partial Langmuir monolayer for a protein of 120 kDa (2 ng/mm^2). The affinities of FNO for the ten compounds of interest were derived from the fit of raw data (representative sensorgrams are shown in Fig. 8; full panel is provided in Supplemental Information) to a mono-exponential model.
FNO from M. smithii (isolated as described in the Supplementary Information) was covalently coupled to the carboxylate surface of the sensor via EDC/NHS chemistry. Upon successful immobilization of FNO, unreacted carboxyl groups were blocked with ethanolamine 1 M pH 8.5, and the surface was eventually equilibrated with PBS. Independent additions of each molecule at different concentrations (β-D-glucose pentacetate 1.25–62.5 µM; mangiferin 3.125–37.5 µM; baicalin 1.25–25 µM; frangulin A 30–480 nM; ononin 29–465 nM; 5z-caffeoylquinic acid […]; ZINC35442308 0.30–4.92 µM; ZINC248099510 0.31–4.93 µM; ZINC2120951 0.32–5.1 µM; ZINC9271779 0.32–5.2 µM) to surface-blocked FNO were performed, each time monitoring the association kinetics until equilibrium. […] The affinities between surface-blocked FNO and soluble ligands were derived from the fit of raw data to single exponential model.

The subject of data set [5] is FNO. Nature of the data set: Competitive binding test with NADP+ on biosensor. Also noted: species or system Methanobrevibacter smithii. The protocol:
A competitive binding test between NADP^+ and three out of the ten compounds (with high, moderate and low affinity for FNO, respectively) was performed to identify the binding site on FNO. The protocol involved the addition of a given concentration of baicalin, mangiferin and β-D-glucose pentaacetate to both free and NADP^+-saturated FNO.

Setting [6] is: 0.5 mM NADPH, 15 min preincubation, pH 6.0, 37 °C, read-out: Ki.
[7] abbreviates: experimental equilibrium constant, read-out: KD,E.
Where [8] appears, read: 0.5 mM NADPH, 15 min preincubation, pH 6.0, 37 °C.

T1 sequence (A5UJ76 entry or part of it): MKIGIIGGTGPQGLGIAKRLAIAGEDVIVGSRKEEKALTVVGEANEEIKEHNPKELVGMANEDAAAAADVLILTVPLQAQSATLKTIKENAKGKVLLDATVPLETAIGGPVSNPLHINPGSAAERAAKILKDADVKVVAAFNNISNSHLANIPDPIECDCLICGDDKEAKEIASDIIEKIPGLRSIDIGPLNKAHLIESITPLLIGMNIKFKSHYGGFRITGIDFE

In general, Ki refers to a dissociation constant, usually derived from enzyme kinetics or from competition with a known ligand. The Kd is the equilibrium constant for the complex coming apart. For `O=c1c2cc(O)c(O)cc2oc2cc(O)c([C@@H]3O[C@H](CO)[C@@H](O)[C@H](O)[C@H]3O)c(O)c12` [Mangiferin], the “pKa of histidine residue in FNO-mangiferin complex” value in the data set on FNO [1] (pH 6.4 to 7.4) is reported as 5.26 ± 2.61. Moreover, in the data set on FNO [1] (pH 7.4 to 8.0), the “pKa of histidine residue in FNO-mangiferin complex” value was found to be 8.21 ± 0.12. Moreover, the “affinity for FNO with respect to ZINC05409528” value at FNO from M. smithii [2] is recorded as “nearly sevenfold lower affinity”. In addition, the Ki at FNO from M. smithii [3] (setting [6]) was 0.65 ± 0.25 µM. Besides, at FNO from M. smithii [4], the kon stood at 4820 M⁻¹ s⁻¹ and the koff is 0.002 ± 0.00097 s⁻¹. Also, the Kd at FNO from M. smithii [4] (setting [7]) worked out at 0.4 ± 0.2 µM. Moreover, the “biosensor response on NADP+-saturated FNO with respect to free enzyme” value (“biosensor response … to free enzyme” below) with FNO [5] is reported as “significantly lower”.

In the case of `CC(=O)OC[C@H]1O[C@@H](OC(C)=O)[C@H](OC(C)=O)[C@@H](OC(C)=O)[C@@H]1OC(C)=O` [β-D-glucose pentaacetate], the Ki at FNO from M. smithii [3] (setting [6]) is 3.96 ± 0.2 µM. For the same compound, on FNO from M. smithii [4], the kon came to 2720 M⁻¹ s⁻¹ and the koff is 0.013 ± 0.005 s⁻¹. The Kd at FNO from M. smithii [4] (setting [7]) stood at 4.85 ± 1.85 µM. The “biosensor response … to free enzyme” value with FNO [5] is reported as “significantly lower”.

On to `O=C(O)[C@H]1O[C@@H](Oc2cc3oc(-c4ccccc4)cc(=O)c3c(O)c2O)[C@H](O)[C@@H](O)[C@@H]1O` [Baicalin], for which the Ki at FNO from M. smithii [3] turned out to be 0.045 ± 0.003 µM. On FNO from M. smithii [4], binding was characterised by a dissociation constant (Kd) of 0.065 ± 0.028 µM, the kon was determined as 3870 M⁻¹ s⁻¹ and the koff came out at 0.00025 ± 0.0001 s⁻¹. For the same compound, in the data set on FNO [5], the “biosensor response … to free enzyme” value was “significantly lower”.

Take `COc1ccc(-c2coc3cc(O[C@@H]4O[C@H](CO)[C@@H](O)[C@H](O)[C@H]4O)ccc3c2=O)cc1` [Ononin]: the Ki at FNO from M. smithii [3] (setting [6]) was 0.205 ± 0.069 µM. In addition, on FNO from M. smithii [4], the kon is 29700 M⁻¹ s⁻¹ and the koff amounted to 0.0072 ± 0.0033 s⁻¹. Besides, the Kd at FNO from M. smithii [4] (setting [7]) is 0.24 ± 0.11 µM.

`Nc1ncnc2c1nc(NN=Cc1ccccc1)n2C1OC(CO)C(O)C1O` (stereo not drawn) [ZINC9271779] displayed a Ki at FNO from M. smithii [3] (setting [8]) of 1.07 ± 0.34 µM. Moreover, on FNO from M. smithii [4], the kass was 1,147 ± 267 M^−1 s^−1 and the kdiss came to 0.0078 ± 0.0008 s⁻¹. Besides, the Kd at FNO from M. smithii [4] (setting [7]) is 6.8 ± 1.7 µM.

As to `O=C(C=Cc1ccc(O)c(O)c1)OC1CC(O)(C(=O)O)CC(O)C1O` (stereo not drawn) [5z-caffeoylquinic acid], at FNO from M. smithii [3] (setting [8]), affinity was put at a Ki of 0.21 ± 0.14 µM. Besides, at FNO from M. smithii [4], the kass is reported as 20,406 ± 2,270 M^−1 s^−1 and the kdiss came out at 0.005 ± 0.003 s⁻¹. Also, on FNO from M. smithii [4] (setting [7]), the Kd is 0.23 ± 0.16 µM.

With `Cc1cc(O)c2c(c1)C(=O)c1cc(O[C@@H]3O[C@@H](C)[C@H](O)[C@@H](O)[C@H]3O)cc(O)c1C2=O` [Frangulin A], the “increase of inhibitory potency from β-D-glucose pentaacetate” value at FNO from M. smithii [3] (0.5 mM NADPH) is “approximately 100 fold”. Moreover, the Ki on FNO from M. smithii [3] (setting [6]) was 0.049 ± 0.014 µM. On FNO from M. smithii [4], the kon amounted to 35200 M⁻¹ s⁻¹ and the koff came out at 0.0045 ± 0.0014 s⁻¹. Moreover, the Kd at FNO from M. smithii [4] (setting [7]) worked out at 0.13 ± 0.05 µM.

For `COc1cc(OC)c2c(C)c(CC(=O)NCC(=O)NCC(=O)O)c(=O)oc2c1` [ZINC2120951], affinity at FNO from M. smithii [3] (setting [8]) was put at a Ki of 0.97 ± 0.67 µM. Besides, on FNO from M. smithii [4], the kass is given as 2,423 ± 116 M^−1 s^−1 and the kdiss was 0.004 ± 0.001 s⁻¹. Besides, the Kd on FNO from M. smithii [4] (setting [7]) came out at 1.65 ± 0.41 µM.
